Experimental data reported in PubChem BioAssay AID1918953 (Molecular Pharmacology Branch, DTP, NCI, 2023).
Where “and” joins values, the source holds several entries; their conditions need not be identical. Equal values may be shown once.

Test system: MDA-MB-231 complex spheroid viability
Assay: Anticancer human tumor MDA-MB-231/ATCC cell line growth inhibition;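 also: drug exposure lasted 7 days starting on day 3 of spheroid growth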
Settings: for viability, T/C: stronger effect = lower value
Method in brief: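 Complex spheroids of tumor cells with HUVEC and human MSCs, exposed to iadademstat combined with other agents. Each agent tested in half-log steps from near clinical Cmax (else 10 microM top), DMSO ≤0.25%.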

[1] = curve of first compound, second compound 0.1 µM
[2] = curve of first compound, second compound 0.316 µM
[3] = curve of first compound, second compound 1 µM
[4] = curve of first compound, second compound 3.16 µM
[5] = curve of first compound, second compound 10 µM
[6] = second compound 0.1 µM, first compound 0.0316 µM
[7] = second compound 0.1 µM, first compound 0.1 µM
[8] = second compound 0.1 µM, first compound 0.316 µM
[9] = second compound 0.1 µM, first compound 1 µM
[10] = second compound 0.316 µM, first compound 0.0316 µM
[11] = second compound 0.316 µM, first compound 0.1 µM
[12] = second compound 0.316 µM, first compound 0.316 µM
[13] = second compound 0.316 µM, first compound 1 µM
[14] = second compound 1 µM, first compound 0.0316 µM
[15] = second compound 1 µM, first compound 0.1 µM
[16] = second compound 1 µM, first compound 0.316 µM
[17] = second compound 1 µM, first compound 1 µM
[18] = second compound 3.16 µM, first compound 0.0316 µM
[19] = second compound 3.16 µM, first compound 0.1 µM
[20] = second compound 3.16 µM, first compound 0.316 µM
[21] = second compound 3.16 µM, first compound 1 µM
[22] = second compound 10 µM, first compound 0.0316 µM
[23] = second compound 10 µM, first compound 0.1 µM
[24] = second compound 10 µM, first compound 0.316 µM
[25] = second compound 10 µM, first compound 1 µM
[26] = second compound 0.1 µM, first compound 0.000316 µM
[27] = second compound 0.1 µM, first compound 0.001 µM
[28] = second compound 0.1 µM, first compound 0.00316 µM
[29] = second compound 0.1 µM, first compound 0.01 µM
[30] = second compound 0.316 µM, first compound 0.000316 µM
[31] = second compound 0.316 µM, first compound 0.001 µM
[32] = second compound 0.316 µM, first compound 0.00316 µM
[33] = second compound 0.316 µM, first compound 0.01 µM
[34] = second compound 1 µM, first compound 0.000316 µM
[35] = second compound 1 µM, first compound 0.001 µM
[36] = second compound 1 µM, first compound 0.00316 µM
[37] = second compound 1 µM, first compound 0.01 µM
[38] = second compound 3.16 µM, first compound 0.000316 µM
[39] = second compound 3.16 µM, first compound 0.001 µM
[40] = second compound 3.16 µM, first compound 0.00316 µM
[41] = second compound 3.16 µM, first compound 0.01 µM
[42] = second compound 10 µM, first compound 0.000316 µM
[43] = second compound 10 µM, first compound 0.001 µM
[44] = second compound 10 µM, first compound 0.00316 µM
[45] = second compound 10 µM, first compound 0.01 µM

SMILES	IC50 [1] [nM]	IC50 [2] [nM]	IC50 [3] [nM]	IC50 [4] [nM]	IC50 [5] [nM]	viability, T/C [6] [%]	viability, T/C [7] [%]	viability, T/C [10] [%]	viability, T/C [11] [%]	viability, T/C [14] [%]	viability, T/C [15] [%]	viability, T/C [18] [%]	viability, T/C [19] [%]	viability, T/C [22] [%]	viability, T/C [23] [%]	viability, T/C [28] [%]	viability, T/C [29] [%]	viability, T/C [32] [%]	viability, T/C [33] [%]	viability, T/C [36] [%]	also measured
CC1(C)CCC(CN2CCN(c3ccc(C(=O)NS(=O)(=O)c4ccc(NCC5CCOCC5)c([N+](=O)[O-])c4)c(Oc4cnc5[nH]ccc5c4)c3)CC2)=C(c2ccc(Cl)cc2)C1 + NC1CCC(NC2CC2c2ccccc2)CC1	6760	6450	5380	3860	735	100	98.6	102	103	98.9	95.6	81.1	77.3	48.6	60.2	–	–	–	–	–	viability, T/C [8]: 100%; viability, T/C [9]: 102%; viability, T/C (second compound 0.1 µM, first compound 3.16 µM): 92.6%; viability, T/C (second compound 0.1 µM, first compound 10 µM): 27.8%; viability, T/C [12]: 97.3%; viability, T/C [13]: 97.3%; viability, T/C (second compound 0.316 µM, first compound 3.16 µM): 86%; viability, T/C (second compound 0.316 µM, first compound 10 µM): 27.6%; viability, T/C [16]: 99.4%; viability, T/C [17]: 95.3%; viability, T/C (second compound 1 µM, first compound 3.16 µM): 72.8%; viability, T/C (second compound 1 µM, first compound 10 µM): 23.5%; viability, T/C [20]: 74.8%; viability, T/C [21]: 75%; viability, T/C (second compound 3.16 µM, first compound 3.16 µM): 56.2%; viability, T/C (second compound 3.16 µM, first compound 10 µM): 19.9%; viability, T/C [24]: 53.8%; viability, T/C [25]: 47.7%; viability, T/C (second compound 10 µM, first compound 3.16 µM): 36.2%; viability, T/C (second compound 10 µM, first compound 10 µM): 18.6%
CC(C)CC(NC(=O)C(Cc1ccccc1)NC(=O)c1cnccn1)B(O)O (stereo unspecified) + NC1CC1c1ccc(-c2cccc(O)c2)cc1	< 0.316	< 0.316	< 0.316	< 0.316	< 0.316	0.85	1.08	0.07	0.14	0.09	0.15	0.07	1.91	0.12	1.1	0.68	0.5	0.07	0.06	0.11	viability, T/C [26]: 29.9%; viability, T/C [27]: 1.88%; viability, T/C [30]: 31.8%; viability, T/C [31]: 0.28%; viability, T/C [34]: 28.9%; viability, T/C [35]: 0.45%; viability, T/C [37]: 0.08%; viability, T/C [38]: 25.6%; viability, T/C [39]: 0.41%; viability, T/C [40]: 0.12%; viability, T/C [41]: 0.15%; viability, T/C [42]: 18.3%; viability, T/C [43]: 0.24%; viability, T/C [44]: 0.13%; viability, T/C [45]: 0.11%
CC1COCCN1c1cc(-c2ccnn2C)c2ccnc(-c3ccn[nH]3)c2n1 (stereo unspecified) + NC1CCC(NC2CC2c2ccccc2)CC1	31.1	34.3	25.7	16.5	10.7	50.4	33.3	50.7	37.4	45.8	34.5	40.2	33	32.8	30	102	77.8	93.7	73.8	90	viability, T/C [8]: 28.4%; viability, T/C [9]: 28.8%; viability, T/C [12]: 29.3%; viability, T/C [13]: 28.9%; viability, T/C [37]: 69.4%; viability, T/C [16]: 27.4%; viability, T/C [17]: 30.7%; viability, T/C [40]: 72.8%; viability, T/C [41]: 57.4%; viability, T/C [20]: 29.3%; viability, T/C [21]: 30.7%; viability, T/C [44]: 56.9%; viability, T/C [45]: 51%; viability, T/C [24]: 28%; viability, T/C [25]: 28.9%
CC(C)CC(NC(=O)CNC(=O)c1cc(Cl)ccc1Cl)B1OC(=O)CC(CC(=O)O)(C(=O)O)O1 (stereo unspecified) + NC1CCC(NC2CC2c2ccccc2)CC1	7.26	7.08	7.23	5.75	3.98	5.81	0.78	5.22	0.88	4.74	0.52	3.87	0.63	2.19	0.65	85	36.5	81.8	36.4	85.8	viability, T/C [26]: 105%; viability, T/C [27]: 110%; viability, T/C [30]: 98.9%; viability, T/C [31]: 107%; viability, T/C [34]: 102%; viability, T/C [35]: 107%; viability, T/C [37]: 36%; viability, T/C [38]: 83.8%; viability, T/C [39]: 86.7%; viability, T/C [40]: 69.4%; viability, T/C [41]: 31.7%; viability, T/C [42]: 57.6%; viability, T/C [43]: 61.2%; viability, T/C [44]: 55.8%; viability, T/C [45]: 25.7%
CC1(C)CCC(CN2CCN(c3ccc(C(=O)NS(=O)(=O)c4ccc(NCC5CCOCC5)c([N+](=O)[O-])c4)c(Oc4cnc5[nH]ccc5c4)c3)CC2)=C(c2ccc(Cl)cc2)C1	–	–	–	–	–	–	–	–	–	–	–	–	–	–	–	–	–	–	–	–	viability, T/C (compound 0.0316 µM): 109%; viability, T/C (compound 0.1 µM): 105% and 107%; viability, T/C (compound 0.316 µM): 100% and 114%; viability, T/C (compound 1 µM): 103% and 123%; viability, T/C (compound 3.16 µM): 102% and 83.3%; IC50 (curve of compound): 7610 nM and 5060 nM
